Reference: patent publication US20190274981A1, “OLEANOLIC ACID ENHANCES MESENCHYMAL STROMAL CELL OSTEOGENIC POTENTIAL BY INHIBITION OF NOTCH SIGNALING” (Board of Supervisors of Louisiana State University and …, priority 2018, published 2019)
“Also recorded” adds a separate entry of the source.

How the values were obtained:
MSCs [1] = assay: MSC osteogenic differentiation assay, real time RT-PCR of osteogenic markers; type: cell-based, human; details: OA 10 and 20 μM, seven days, vs DMSO treated control MSCs
Procedure: (§1) Cell culture and treatment: The human MSCs were purchased from Lonza. Oleanolic acid was obtained from Sigma-Aldrich (Aldrich-5504). A 100 mM solution of OA was prepared in dimethyl sulfoxide (DMSO), and all test concentrations were prepared by diluting the stock solution in cell culture medium. […] After expansion, cells were exposed to media containing OA and/or BMP2 for certain days. […] At the end, cells were harvested at different time points for analyses as described below.
(§2) MSC osteogenic differentiation assay: Osteogenic differentiation assays of MSCs were performed using the Osteogenic differentiation bulletKit® (Lonza). MSCs were cultured at 200,000 cells/well in 6-well plates to confluence. Stem cell growth media was then replaced with osteogenic media supplied with or without OA and BMP2. After seven days of culture, alkaline phosphatase (ALP) staining, RNA, and protein isolation were performed as described in our published protocols.
(§3) Real time RT-PCR: cDNA was synthesized from 1 μg total RNA using the SuperScript III reverse transcriptase kit (Invitrogen) in a final volume of 20 μl. Primers were designed with the IDT SCI primer design tool (Integrated DNA Technologies, San Diego, Calif.). RT-PCR experiments were performed with a Bio-Rad C1000 thermal cycler (Bio-Rad, Hercules, Calif.), and real-time PCR experiments were performed with an ABI prism 7500 (Applied Biosystems, Grand Island, N.Y.) in triplicate. Sequence for each primer pair were: Hes1, forward primer 5′-[…]-3′, reverse primer 5′-[…]-3′; ALP, forward primer 5′-[…]-3′, reverse primer 5′-[…] […]-3′; Runx2, forward primer 5′-[…]-3′, reverse primer 5′-[…]-3′; Osteocalcin (OC), forward primer 5′-[…]-3′, reverse primer 5′-[…]-3′; Osteopontin (OPN), forward primer 5′-[…]-3′, reverse primer 5′-[…]-3′; Type I collagen (Col1a1), forward primer 5′-[…]-3′, reverse primer 5′-[…]-3′; β-actin, forward primer 5′-[…]-3′; reverse primer 5′-[…] […]-3′. Samples were analyzed in triplicate, and the raw data consisted of PCR cycle numbers required to reach a fluorescence threshold level. The relative expression level of target genes was normalized to (β-actin gene.

Notch signaling = assay: Notch responsive RBPJ-Luc luciferase assay; type: cell-based, human; details: MSCs, 0, 10 μM and 20 μM OA, 48 hours
Procedure: Luciferase assay: 80% confluence MSCs were transfected with Notch responsive RBPJ-Luc and SV40-Renilla-Luc (Promega) in the presence of Lipofectamine 2000 (Invitrogen) followed by OA treatment. At 24 hours after transfection and treatment, lysates were analyzed with a Dual Luciferase Assay Kit (Promega).
The inventor has identified the RBPjk-dependent Notch pathway as an important inducer of MSC proliferation, and an inhibitor of MSC differentiation during mouse limb-bud and postnatal bone development. In this study, the inventor further tested whether Notch signaling is also involved in OA-mediated osteogenesis. To do so, MSCs were first transfected with the RBPjk-dependent NOTCH-responsive luciferase reporter, and then cultured in medium containing 0, 10 μM and 20 μM OA for 48 hours. […] Moreover, down-regulation of Notch target gene Hes1 expression was also observed in OA treated MSCs (FIG. 1E), which further confirmed the inhibitory effect of OA on Notch signaling.

MSCs [2] = assay: MSC osteogenic differentiation assay, ALP staining; type: cell-based, human
Procedure: Cell culture and treatment: The human MSCs were purchased from Lonza. Oleanolic acid was obtained from Sigma-Aldrich (Aldrich-5504). A 100 mM solution of OA was prepared in dimethyl sulfoxide (DMSO), and all test concentrations were prepared by diluting the stock solution in cell culture medium. […] At the end, cells were harvested at different time points for analyses as described below.
as §2, with “Stem cell growth media was then replaced with osteogenic media supplied with or without OA and BMP2.” left out

MSCs [3] = assay: Lentivirus-mediated Notch activation (NICD1 overexpression) in OA treated MSCs; type: cell-based, human
NICD = assay: Western blot of NICD; type: cell-based, human; details: OA treated MSCs, day 3
Notch target gene Hes1 = assay: Real time PCR of Notch target gene Hes1; type: cell-based, human; details: OA treated MSCs, day 7, vs DMSO treated control
Procedure: as §3

normal cells = details: cited from earlier work
MSC/HA pellet = assay: In vivo ectopic bone-formation assay; details: MSCs with 20 μM OA, subcutaneous in nude mice, six weeks
Procedure: In vivo ectopic bone-formation assay: All animal studies were reviewed and approved by the Animal Ethics Committee of Louisiana State University Health Sciences Center. 1.0×10^6 total MSCs were re-suspended in 80 μl of MSC growth media containing 20 μM OA and gently mixed with 50 mg of hydroxyapatite (HA) powder (Himed). The composites were then centrifuged for two minutes at 200 rpm to form a MSC/HA pellet. For ectopic bone formation surgery, ten 8-week-old NOD.CB17^−Prkdescid/J mice (Charles River) (up to 2 implants for each animal) were anesthetized and the dorsal skin was cleaned with 70% ethanol. Two incisions of ˜1 cm in length were performed on the opposite flanks of the back, and then a pocket was formed by blunt dissection. Finally the MSC/HA pellets were implanted. Six weeks post-surgery, transplanted BMSC/HA pellets were harvested for gross observation and Masson's trichrome staining. […] All animal work was performed in accordance with institution approved guidelines.
MSCs were first dissolved in PBS containing 20 μM OA, then mixed with HA ceramic powder, and centrifuged into MSC/HA pellets prior to subcutaneous transplantation into nude mice. After six weeks of growth and differentiation, the pellets were harvested for gross observation, Masson's trichrome and immunohistochemistry staining (FIG. 4A).

phospho-smad1/5/8 = assay: RT-PCR and western blot of phospho-smad1/5/8; type: cell-based, human; details: MSCs
Procedure: Real time RT-PCR: cDNA was synthesized from 1 μg total RNA using the SuperScript III reverse transcriptase kit (Invitrogen) in a final volume of 20 μl. Primers were designed with the IDT SCI primer design tool (Integrated DNA Technologies, San Diego, Calif.). RT-PCR experiments were performed with a Bio-Rad C1000 thermal cycler (Bio-Rad, Hercules, Calif.), and real-time PCR experiments were performed with an ABI prism 7500 (Applied Biosystems, Grand Island, N.Y.) in triplicate. […] Samples were analyzed in triplicate, and the raw data consisted of PCR cycle numbers required to reach a fluorescence threshold level. The relative expression level of target genes was normalized to (β-actin gene.
Western blot analysis: MSCs cultured with or without OA and BMP2 treatment were lysed in RIPA buffer (10 mM Tris-HCI, 1 mM EDTA, 1 sodium dodecyl sulfate [SDS], 1% NP-40, 1:100 proteinase inhibitor cocktail, 50 mM β-glycerophosphate, 50 mM sodium fluoride). The samples were separated on a 10% SDS polyacrylamide gel and transferred to polyvinylidene difluoride (PVDF) membranes with a semi-dry transfer apparatus (Bio-Rad). The membranes were blotted with 5% dehydrated milk for two hours, and then, incubated with primary antibodies overnight. […]

MSCs [4] = assay: Cell viability assay (MTT); type: cell-based, human; details: 12 hours
Procedure: as §1
Cell viability assay: MSC viability was measured using MTT (3-(4, 5-dimethylthiazole-2-yl)-2, 5-diphenyl tetrazolium bromide) based in vitro toxicology assay kit (Sigma, St. Louis, Mo., USA). Briefly, cells were seeded in 96-well plates. After growing into 50-60% confluence, cells were exposed to various concentrations of OA for 12 hours, then the supernatant was discarded, and cells were treated with 0.5 mg/ml MTT staining solution for another four hours. After incubation, the supernatant was removed and 50 μl of solubilization buffer provided by the Sigma kit with 0.5% DMSO was added. DMSO was added to ensure total solubility of the formazan crystals. Plates were shaken for two minutes, and the absorbance recorded at 590 nm on an automated microtiter plate reader. The percent viability was expressed as a percentage of that in the vehicle control (with subtraction of background absorbance).

Structure (SMILES): CC1(C)CC[C@]2(C(=O)O)CC[C@]3(C)C(=CC[C@@H]4[C@@]5(C)CC[C@H](O)C(C)(C)[C@@H]5CC[C@]43C)[C@@H]2C1 [OA, (3β)-3-hydroxyolean-12-en-28-oic acid]
- ALP expression (early osteogenic marker) (MSCs [1]): enhanced expression
- Col1a1 expression (early osteogenic marker) (MSCs [1]): enhanced expression
- OC expression (later osteogenic marker) (MSCs [1]): remained unchanged
- OPN expression (later osteogenic marker) (MSCs [1]): remained unchanged
- Runx2 expression (early osteogenic marker) (MSCs [1]): enhanced expression
- Notch-responsive luciferase activity (Notch signaling): inhibited Notch-responsive luciferase activity dose dependently
- ALP activity (ALP staining) (MSCs [2]; OA 20 μM and/or BMP2 200 ng/ml, seven days, osteogenic medium): significant increase; also recorded: relative weak ALP staining
- ALP staining (MSC osteogenic differentiation) (MSCs [2]; OA 10 and 20 μM, seven days): dose dependent increase
- osteogenic nodule formation (MSCs [2]; OA treated MSCs at day 7, maximal staining at 20 μM): increase in osteogenic nodule formation
- OA-induced ALP staining under overexpression of NICD1 (MSCs [3]; NICD1 lentivirus infected MSCs, OA, day 7): totally blocked
- expression of ALP, Runx2 and Col1a1 in Notch activated MSCs with OA (MSCs [3]; NICD1 lentivirus, RT-PCR, day 7, vs control or OA treated MSCs): significantly reduced
- expression of NICD (western blot) (NICD): significantly reduced
- Notch target gene Hes1 expression (Notch target gene Hes1): down-regulation
- cytotoxicity to normal cells (normal cells): no significant cytotoxicity
- increase of type I collagen bone matrix (blue) in the pellet area vs untreated MSCs (MSC/HA pellet): approximately 4 fold
- pellet area stained blue (type I collagen bone matrix, Masson's trichrome) (MSC/HA pellet): 30%
- gene expression of p-smad1/5/8 (RT-PCR) (phospho-smad1/5/8; day 7, OA 20 μM, BMP2 200 ng/ml): did not show any effects
- p-smad1/5/8 expression (western blot) (phospho-smad1/5/8; day 7, control vs OA treated): no significant difference
- cell death in cell viability assay (MSCs [4]; OA 10 μM): no cell death
- cell death in cell viability assay (MSCs [4]; OA 20 μM): no cell death
- cell death in cell viability assay (MSCs [4]; OA 30 μM): significant cell death
